The results in this text go back to patent publication US8802866B2, “Pyridinylimidazolone derivatives for the inhibition of PI3 kinases” (Merck Patent GmbH, priority 2009, dated 2014).

The target of one test is T1, mTOR (Homo sapiens, UniProt P42345).
T1 construct: purchased Millipore 14-770
The test can be described thus: Biochemical mTOR assay (Millipore mTOR assay kit). The procedure: The biochemical mTOR assay was carried out by the method described in the Millipore mTOR assay kit (catalogue number 14-770).

The next test has as its target DNA-PK protein complex (Homo sapiens, UniProt P78527). The experiment in a line: Biochemical DNA-PK assay (FlashPlate). The gist of the method: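 Streptavidin-coated FlashPlate radiometric kinase assay, stopped with 200 mM EDTA, then wells washed with 0.9% NaCl and bound radioactivity counted. Blank (non-specific reaction) defined with a proprietary kinase inhibitor at 10 μM.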

Test [1] concerns PI3K-dependent phosphorylation of PKB at Serin 473 in PC3 cells. The experiment in a line: Cellular PI3K assay (P-S473-PKB Luminex assay in PC3 cells). The test is classed as cell-based. The settings on record: Homo sapiens, PC-3, 0.5 h; PC3 cells, 30 min, serum-free, P-S473-PKB; read-out: IC50 (cell). The gist of the method:
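PC3 cells were exposed for 30 min under serum-free conditions to 7 concentrations of compound, then lysed. Lysates were captured overnight at 4°C on anti-total-PKB Luminex beads and detected with P-S473-PKB antibody plus PE-labelled secondary.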

Another test concerns the target PI3Kbeta (Homo sapiens, UniProt P42338). The experiment in a line: Biochemical PI3Kbeta assay (neomycin SPA, lipid phosphorylation). The settings on record: human recombinant GST-PI3K. The gist of the method:
(§1)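 Recombinant PI3K incubated with lipid substrate and radioactive ATP for 120 min at room temperature with gentle stirring, then stopped with neomycin-coated PVT-SPA beads, ATP 60 mM and EDTA 6.2 mM in PBS. After 60 min bead binding and centrifugation, radioactive Ptdlns(3)P counted by scintillation.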

The next test concerns the target PI3Kalpha (Homo sapiens, UniProt P42336). The test can be described thus: Biochemical PI3Kalpha assay (neomycin SPA, lipid phosphorylation). The settings on record: human recombinant GST-PI3K. The gist of the method: as §1
In test [2] the target is recombinant PI3Kalpha (shortened form of the catalytic subunit) (Homo sapiens, UniProt P42336). The test can be described thus: BIACORE PI3K binding assay (SPR). To be noted: 25° C. The procedure:
SPR measurements of the binding affinities and binding kinetics on PI3Kalpha surfaces with the aid of Biacore systems. The experiments are carried out on a Biacore S51 “Compound Characterization” or a Biacore T100 instrument utilising the default application “Kinetics/Affinity” Experimental conditions: recombinant PI3Kalpha (shortened form of the catalytic subunit, missing N terminal from about 100 to 150 aa, Mw about 110 kDa, prepared by Proteros Biostructures GmbH) is immobilised on Biacore CM5 chips (25° C., flow rate: 10 μl/min, utilising amine coupling at pH 7.40—Biacore Standard protocol). PI3Kalpha is employed in concentrations between 10 and 25 μg/ml. Depending on the duration of the injection time, immobilisation levels from 1700 to 11000 RU are achieved. The substances to be measured are added in the form of a titration series. The substance concentration is doubled for each subsequent injection. 10 different substance concentrations which cover a 500-fold dilution range are usually injected. […] Kinetic titration experiments are carried out at 25° C. with a flow rate of 30 μl/min, the sample contact time is 180 s, and the dissociation time is 240 s in a running buffer (20 mM HEPES pH7.40, 150 mM NaCl, 5 mM MgCl2, 1 mM DTT, 0.1 mM EDTA, 0.05% Tween 20) comprising 2% of DMSO. Buffer injections (as double references) identical to the sample injections are carried out in each case at the beginning of a continuous series. Solvent correction cycles (eight correction points, 1.4%-2.8% DMSO) are carried out at equal intervals. In order to condition the surface, at least five start-up cycles (buffer injections) are carried out. Data points are collected with a sample rate of 10 Hz. Surface regeneration is carried out after each measurement cycle, apart from after the solvent correction runs. For this purpose, two times 100 mM NaHCO3 pH 8.60 are injected for 30 sec. Data sets are processed and analysed using the Biacore S51 Evaluation software, version 1.2.1, or Biacore T100 Evaluation, version 2.0. Solvent-corrected and double-referenced association and dissociation phase data are adapted to a simple 1:1 interaction model with mass transport limitations.
(In general: In SPR one partner is held on a chip, and binding of the other changes the refractive index at the surface.)

Sequence of PI3Kbeta (P42338 whole entry): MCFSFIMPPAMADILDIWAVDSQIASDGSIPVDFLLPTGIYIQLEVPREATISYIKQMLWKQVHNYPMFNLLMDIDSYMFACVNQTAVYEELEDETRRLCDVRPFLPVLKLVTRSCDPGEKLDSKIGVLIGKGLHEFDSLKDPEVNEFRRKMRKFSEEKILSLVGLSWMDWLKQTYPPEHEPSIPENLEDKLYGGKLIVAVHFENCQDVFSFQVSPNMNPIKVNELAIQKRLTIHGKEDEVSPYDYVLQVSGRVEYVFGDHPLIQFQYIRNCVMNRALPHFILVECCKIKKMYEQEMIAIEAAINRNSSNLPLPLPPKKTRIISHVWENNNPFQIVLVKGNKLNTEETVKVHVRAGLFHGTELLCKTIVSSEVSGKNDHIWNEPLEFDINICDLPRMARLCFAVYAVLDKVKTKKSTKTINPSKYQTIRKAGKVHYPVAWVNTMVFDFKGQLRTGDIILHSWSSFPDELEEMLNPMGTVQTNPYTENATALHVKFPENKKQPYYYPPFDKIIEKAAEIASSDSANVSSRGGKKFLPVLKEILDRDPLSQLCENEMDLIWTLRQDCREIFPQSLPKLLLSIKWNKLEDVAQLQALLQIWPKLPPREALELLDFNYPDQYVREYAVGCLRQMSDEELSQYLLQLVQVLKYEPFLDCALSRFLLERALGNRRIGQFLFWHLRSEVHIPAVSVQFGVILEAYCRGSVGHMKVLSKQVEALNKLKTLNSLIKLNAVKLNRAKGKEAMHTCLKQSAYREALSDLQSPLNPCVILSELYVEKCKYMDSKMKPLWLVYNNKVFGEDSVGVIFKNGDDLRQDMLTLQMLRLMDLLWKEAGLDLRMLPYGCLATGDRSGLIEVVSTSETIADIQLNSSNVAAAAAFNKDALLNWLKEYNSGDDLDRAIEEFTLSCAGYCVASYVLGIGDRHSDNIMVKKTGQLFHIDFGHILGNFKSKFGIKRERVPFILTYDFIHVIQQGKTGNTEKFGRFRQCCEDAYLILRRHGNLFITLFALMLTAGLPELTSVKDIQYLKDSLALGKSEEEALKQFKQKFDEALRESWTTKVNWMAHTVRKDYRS
Sequence of PI3Kbeta (P27986 whole entry partner): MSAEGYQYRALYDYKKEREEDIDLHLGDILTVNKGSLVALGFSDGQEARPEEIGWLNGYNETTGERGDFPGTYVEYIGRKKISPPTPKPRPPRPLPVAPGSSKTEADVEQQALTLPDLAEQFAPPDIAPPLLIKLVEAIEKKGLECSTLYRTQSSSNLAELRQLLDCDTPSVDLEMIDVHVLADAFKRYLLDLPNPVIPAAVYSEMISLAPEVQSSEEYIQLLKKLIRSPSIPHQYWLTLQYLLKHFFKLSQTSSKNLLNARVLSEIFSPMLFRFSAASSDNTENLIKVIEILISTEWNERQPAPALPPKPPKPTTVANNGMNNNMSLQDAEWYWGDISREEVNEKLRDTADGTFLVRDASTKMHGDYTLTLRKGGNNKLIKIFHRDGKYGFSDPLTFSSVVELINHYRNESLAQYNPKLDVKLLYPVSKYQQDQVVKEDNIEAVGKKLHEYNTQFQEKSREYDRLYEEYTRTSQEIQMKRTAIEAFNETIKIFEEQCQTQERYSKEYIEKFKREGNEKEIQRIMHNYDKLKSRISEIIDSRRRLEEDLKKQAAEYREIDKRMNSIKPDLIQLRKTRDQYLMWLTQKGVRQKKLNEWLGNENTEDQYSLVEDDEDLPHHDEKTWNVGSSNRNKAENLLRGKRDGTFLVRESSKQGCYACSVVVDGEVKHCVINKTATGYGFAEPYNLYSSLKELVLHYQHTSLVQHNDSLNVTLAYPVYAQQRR
T1 sequence (P42345 1362-2549 limits assumed): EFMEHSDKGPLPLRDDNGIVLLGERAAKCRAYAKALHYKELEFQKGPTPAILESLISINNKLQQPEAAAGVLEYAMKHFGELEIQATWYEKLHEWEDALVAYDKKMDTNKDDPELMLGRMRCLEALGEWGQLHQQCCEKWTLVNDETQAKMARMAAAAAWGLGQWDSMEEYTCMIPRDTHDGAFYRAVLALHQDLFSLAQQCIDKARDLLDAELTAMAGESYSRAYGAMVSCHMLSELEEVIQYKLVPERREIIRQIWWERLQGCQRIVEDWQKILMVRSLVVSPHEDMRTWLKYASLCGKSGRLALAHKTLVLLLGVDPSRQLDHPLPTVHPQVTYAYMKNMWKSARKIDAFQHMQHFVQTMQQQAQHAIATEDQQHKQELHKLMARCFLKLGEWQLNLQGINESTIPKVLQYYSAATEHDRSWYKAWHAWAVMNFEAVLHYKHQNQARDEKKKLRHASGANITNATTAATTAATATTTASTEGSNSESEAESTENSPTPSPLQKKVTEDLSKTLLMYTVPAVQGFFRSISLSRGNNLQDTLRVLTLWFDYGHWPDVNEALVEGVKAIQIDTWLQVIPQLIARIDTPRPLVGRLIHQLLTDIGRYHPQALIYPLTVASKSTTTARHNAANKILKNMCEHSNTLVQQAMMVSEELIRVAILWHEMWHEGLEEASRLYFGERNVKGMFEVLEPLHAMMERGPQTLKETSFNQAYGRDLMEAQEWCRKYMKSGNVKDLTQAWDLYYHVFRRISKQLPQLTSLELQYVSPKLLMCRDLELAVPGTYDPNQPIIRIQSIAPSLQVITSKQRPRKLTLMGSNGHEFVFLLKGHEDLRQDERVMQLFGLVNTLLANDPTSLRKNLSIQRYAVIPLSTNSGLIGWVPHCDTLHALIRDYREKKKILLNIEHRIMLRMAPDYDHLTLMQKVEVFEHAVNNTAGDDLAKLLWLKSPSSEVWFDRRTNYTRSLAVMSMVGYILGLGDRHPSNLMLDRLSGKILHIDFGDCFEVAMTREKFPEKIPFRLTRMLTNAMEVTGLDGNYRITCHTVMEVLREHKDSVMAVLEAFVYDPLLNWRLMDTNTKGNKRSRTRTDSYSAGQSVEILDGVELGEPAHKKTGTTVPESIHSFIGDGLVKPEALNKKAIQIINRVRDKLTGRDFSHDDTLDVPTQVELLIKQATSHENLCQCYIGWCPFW
Sequence of recombinant PI3Kalpha (shortened form of the catalytic subunit) (P42336 151-1068 limits assumed): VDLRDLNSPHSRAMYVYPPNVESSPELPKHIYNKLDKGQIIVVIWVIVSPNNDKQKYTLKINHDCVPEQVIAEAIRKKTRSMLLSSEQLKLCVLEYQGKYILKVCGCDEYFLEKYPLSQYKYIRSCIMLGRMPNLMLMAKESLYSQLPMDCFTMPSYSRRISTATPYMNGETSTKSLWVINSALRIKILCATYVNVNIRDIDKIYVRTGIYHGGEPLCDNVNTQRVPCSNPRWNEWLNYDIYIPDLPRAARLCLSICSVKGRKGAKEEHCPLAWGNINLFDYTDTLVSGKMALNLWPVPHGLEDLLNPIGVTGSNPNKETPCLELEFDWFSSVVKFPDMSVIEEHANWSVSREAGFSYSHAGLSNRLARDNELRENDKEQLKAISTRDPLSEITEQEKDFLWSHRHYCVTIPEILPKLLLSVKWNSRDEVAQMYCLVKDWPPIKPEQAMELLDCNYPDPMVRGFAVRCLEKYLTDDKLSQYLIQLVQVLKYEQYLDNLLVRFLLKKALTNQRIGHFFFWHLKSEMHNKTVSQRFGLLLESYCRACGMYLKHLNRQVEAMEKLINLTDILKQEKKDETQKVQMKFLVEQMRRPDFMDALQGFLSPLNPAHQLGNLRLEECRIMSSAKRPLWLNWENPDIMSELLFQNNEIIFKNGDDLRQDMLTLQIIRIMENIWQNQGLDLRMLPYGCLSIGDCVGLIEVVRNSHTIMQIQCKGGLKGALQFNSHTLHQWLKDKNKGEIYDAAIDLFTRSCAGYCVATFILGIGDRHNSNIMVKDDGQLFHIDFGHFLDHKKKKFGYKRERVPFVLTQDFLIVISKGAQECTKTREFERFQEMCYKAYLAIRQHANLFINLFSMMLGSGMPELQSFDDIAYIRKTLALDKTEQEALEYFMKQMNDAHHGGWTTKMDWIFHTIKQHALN
Sequence of PI3Kalpha (P42336 whole entry): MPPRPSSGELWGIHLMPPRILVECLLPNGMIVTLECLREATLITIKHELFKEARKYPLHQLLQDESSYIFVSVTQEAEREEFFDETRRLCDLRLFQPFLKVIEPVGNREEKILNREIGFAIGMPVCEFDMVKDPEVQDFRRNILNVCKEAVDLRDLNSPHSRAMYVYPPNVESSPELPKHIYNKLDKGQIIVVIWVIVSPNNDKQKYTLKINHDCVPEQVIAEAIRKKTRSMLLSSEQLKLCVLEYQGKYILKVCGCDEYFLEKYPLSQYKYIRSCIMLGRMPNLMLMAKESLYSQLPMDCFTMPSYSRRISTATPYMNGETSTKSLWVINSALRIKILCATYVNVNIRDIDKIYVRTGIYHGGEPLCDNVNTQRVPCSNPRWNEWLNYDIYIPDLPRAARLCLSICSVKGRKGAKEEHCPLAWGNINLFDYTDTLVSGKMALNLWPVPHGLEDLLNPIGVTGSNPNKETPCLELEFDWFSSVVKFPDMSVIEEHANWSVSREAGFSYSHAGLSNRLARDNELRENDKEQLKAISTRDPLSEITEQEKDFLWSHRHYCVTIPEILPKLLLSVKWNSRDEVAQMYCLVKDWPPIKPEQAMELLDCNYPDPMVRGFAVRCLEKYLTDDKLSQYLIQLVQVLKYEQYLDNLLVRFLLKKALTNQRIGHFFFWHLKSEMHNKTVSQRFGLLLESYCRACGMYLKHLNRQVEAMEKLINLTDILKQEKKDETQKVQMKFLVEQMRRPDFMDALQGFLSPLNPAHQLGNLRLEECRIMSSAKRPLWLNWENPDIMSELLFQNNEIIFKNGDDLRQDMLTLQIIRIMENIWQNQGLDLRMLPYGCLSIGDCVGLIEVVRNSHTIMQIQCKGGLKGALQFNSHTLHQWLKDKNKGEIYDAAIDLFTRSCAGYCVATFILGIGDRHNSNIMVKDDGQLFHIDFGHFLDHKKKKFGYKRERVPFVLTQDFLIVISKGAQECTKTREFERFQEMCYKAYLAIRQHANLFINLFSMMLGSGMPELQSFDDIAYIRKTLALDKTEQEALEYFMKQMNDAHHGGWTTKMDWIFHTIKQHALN
Sequence of PI3Kalpha (P27986 whole entry partner): as the sequence (P27986 whole entry partner) above

As for `Cn1cc(-c2cc(-c3ccc(=O)[nH]c3)ccn2)n(-c2ccc(C(C)(C)C#N)cc2)c1=O` [Example A39, 2-{4-[5-(6-Hydroxy-[3,4′]bipyridinyl-2′-yl)-3-methyl-2-oxo-2,3-dihydroimidazol-1-yl]phenyl}-2-methylpropionitrile], the IC50 (usually the concentration needed to halve the response being measured) against mTOR was 100 to 10000 nM; against DNA-PK protein complex, 0.1 to 100 nM; in test [1], more than 10 µM.
For `Cn1cc(-c2cc(-c3cnc4[nH]ccc4c3)ccn2)n(-c2ccc(F)c(C(F)(F)F)c2)c1=O` [Example A51, 3-(4-Fluoro-3-trifluoromethylphenyl)-1-methyl-4-[4-(1H-pyrrolo[2,3-b]pyridin-5-yl)pyridin-2-yl]-1,3-dihydroimidazol-2-one], the IC50 at mTOR was 100 to 10000 nM; at PI3Kbeta it was more than 10 µM; at DNA-PK protein complex it was 0.1 to 100 nM; at PI3Kalpha it was 0.1 to 10 µM; in test [1], 0.1 to 10 µM.
For `Cn1cc(-c2cc(-c3ccc(NS(C)(=O)=O)nc3)ccn2)n(-c2ccc(N3CCNCC3)c(C(F)(F)F)c2)c1=O` [Example A61, N-{2′-[1-Methyl-2-oxo-3-(4-piperazin-1-yl-3-trifluoromethylphenyl)-2,3-dihydro-1H-imidazol-4-yl]-[3,4′]bipyridinyl-6-yl}methanesulfonamide], the IC50 against mTOR is 100 to 10000 nM; on PI3Kbeta it was more than 10 µM; on DNA-PK protein complex it was 0.1 to 100 nM; on PI3Kalpha it was 0.1 to 10 µM; in test [1], more than 10 µM.
`Cn1cc(-c2cc(-c3cnc4[nH]ccc4c3)ccn2)n(-c2ccc(N3CCN(S(C)(=O)=O)CC3)c(C(F)(F)F)c2)c1=O` [Example A74, 3-[4-(4-Methanesulfonylpiperazin-1-yl)-3-trifluoromethylphenyl]-1-methyl-4-[4-(1H-pyrrolo[2,3-b]pyridin-5-yl)pyridin-2-yl]-1,3-dihydroimidazol-2-one]: the IC50 at mTOR was 0.1 to 100 nM; on PI3Kbeta, 0.1 to 10 µM; against DNA-PK protein complex, 0.1 to 100 nM; at PI3Kalpha it was 0.1 to 10 µM; in test [1] it was 0.0001 to 0.1 µM.
As for `N#Cc1cccc(-n2c(-c3cc(-c4cnc5[nH]ccc5c4)ccn3)cn(C(F)F)c2=O)c1` [Example A75, 3-{3-Difluoromethyl-2-oxo-5-[4-(1H-pyrrolo[2,3-b]pyridin-5-yl)pyridin-2-yl]-2,3-dihydroimidazol-1-yl}benzonitrile], the IC50 against mTOR was 100 to 10000 nM; on PI3Kbeta, more than 10 µM; against DNA-PK protein complex, 0.1 to 100 nM; at PI3Kalpha, 0.1 to 10 µM; in test [1] it was 0.1 to 10 µM.
As to `Cn1cc(-c2cc(-c3cnc4[nH]ccc4c3)ccn2)n(-c2ccccc2OC(F)(F)F)c1=O` [Example A76, 1-Methyl-4-[4-(1H-pyrrolo[2,3-b]pyridin-5-yl)pyridin-2-yl]-3-(2-trifluoromethoxy-phenyl)-1,3-dihydroimidazol-2-one], the IC50 at mTOR is 0.1 to 100 nM; at PI3Kbeta it was more than 10 µM; on DNA-PK protein complex, 0.1 to 100 nM; at PI3Kalpha, more than 10 µM; in test [1] it was more than 10 µM.
As for `Cc1cc2cc(-c3ccnc(-c4cn(C)c(=O)n4-c4ccc(N5CCN(C)CC5)c(C(F)(F)F)c4)c3)cnc2[nH]1` [Example A88, 1-Methyl-3-[4-(4-methylpiperazin-1-yl)-3-trifluoromethylphenyl]-4-[4-(2-methyl-1H-pyrrolo[2,3-b]pyridin-5-yl)pyridin-2-yl]-1,3-dihydroimidazol-2-one], the IC50 lay in the range of 0.1 to 10 µM at PI3Kbeta, 100 to 10000 nM against DNA-PK protein complex, 0.1 to 10 µM at PI3Kalpha and 0.1 to 10 µM in test [1]. In addition, the Kd – broadly, the equilibrium constant for the complex coming apart – in test [2] lay in the range of 100 to 10000 nM.
Regarding `CC(=O)N1CCN(c2ccc(-n3c(-c4cc(-c5ccc6[nH]ccc6c5)ccn4)cn(C)c3=O)cc2C(F)(F)F)CC1` [Example A89, 3-[4-(4-Acetylpiperazin-1-yl)-3-trifluoromethylphenyl]-4-[4-(1H-indol-5-yl)pyridin-2-yl]-1-methyl-1,3-dihydroimidazol-2-one], the IC50 is more than 10 µM at PI3Kbeta, 100 to 10000 nM against DNA-PK protein complex, 0.1 to 10 µM on PI3Kalpha and 0.1 to 10 µM in test [1]. Moreover, the Kd in test [2] lay within 100 to 10000 nM.
As for `Cn1cc(-c2cc(-c3cnc4[nH]ccc4c3)ccn2)n(-c2cccc(Oc3ccccc3)c2)c1=O` [Example A90, 1-Methyl-3-(3-phenoxyphenyl)-4-[4-(1H-pyrrolo[2,3-b]pyridin-5-yl)pyridin-2-yl]-1,3-dihydroimidazol-2-one], the IC50 on PI3Kbeta was in the range of 0.1 to 10 µM; on DNA-PK protein complex, 0.1 to 100 nM; on PI3Kalpha it was 0.1 to 10 µM; in test [1] it was 0.0001 to 0.1 µM. The Kd in test [2] fell in the range of 0.1 to 100 nM.
Turning to `Cn1cc(-c2cc(-c3cnc(N)c(C(F)(F)F)c3)ccn2)n(-c2ccc(F)c(C(F)(F)F)c2)c1=O` [Example A97, 4-(6-Amino-5-trifluoromethyl-[3,4′]bipyridinyl-2′-yl)-3-(4-fluoro-3-trifluoromethyl-phenyl)-1-methyl-1,3-dihydroimidazol-2-one], the IC50 was in the range of 0.1 to 10 µM on PI3Kbeta, 100 to 10000 nM against DNA-PK protein complex, 0.1 to 10 µM at PI3Kalpha and 0.1 to 10 µM in test [1]. Further, the Kd in test [2] fell in the range of 100 to 10000 nM.
In the case of `CN1CCN(c2cc(C#N)cc(-n3c(-c4cc(-c5cnc6[nH]ccc6c5)ccn4)cn(C)c3=O)c2)CC1` [Example A98, 3-{3-Methyl-2-oxo-5-[4-(1H-pyrrolo[2,3-b]pyridin-5-yl)pyridin-2-yl]-2,3-dihydro-imidazol-1-yl}-5-(4-methylpiperazin-1-yl)benzonitrile], the IC50 at PI3Kbeta was 0.1 to 10 µM; against DNA-PK protein complex, 100 to 10000 nM; on PI3Kalpha, 0.1 to 10 µM; in test [1] it was more than 10 µM. Further, the Kd in test [2] was 100 to 10000 nM.
For `CCc1cc(-c2c[nH]c3ncc(-c4ccnc(-c5cn(C)c(=O)n5-c5ccc(C(C)(C)C#N)cc5)c4)cc23)nc(N)n1` [Example A99, 2-[4-(5-{4-[3-(2-Amino-6-ethylpyrimidin-4-yl)-1H-pyrrolo[2,3-b]pyridin-5-yl]-pyridin-2-yl}-3-methyl-2-oxo-2,3-dihydroimidazol-1-yl)phenyl]-2-methylpropionitrile], the IC50 at PI3Kbeta was 0.1 to 10 µM; against DNA-PK protein complex, 0.1 to 100 nM; on PI3Kalpha it was 0.1 to 10 µM; in test [1], 0.1 to 10 µM. In test [2], the Kd lay within 100 to 10000 nM.
In the case of `COc1ccc(Cn2c(-c3cc(-c4cnc5[nH]ccc5c4)ccn3)cn(C)c2=O)cc1` [Example A108, 3-(4-Methoxybenzyl)-1-methyl-4-[4-(1H-pyrrolo[2,3-b]pyridin-5-yl)pyridin-2-yl]-1,3-dihydroimidazol-2-one], the concentration for half-maximal inhibition (IC50) at PI3Kbeta is more than 10 µM; on DNA-PK protein complex it was 0.1 to 100 nM; on PI3Kalpha, more than 10 µM; in test [1], 0.1 to 10 µM. Also, in test [2], the Kd was in the range of 100 to 10000 nM.
Consider `COc1ccc(Cn2c(-c3cc(-c4cnc5[nH]ncc5c4)ccn3)cn(C)c2=O)cc1` [Example A109, 3-(4-Methoxybenzyl)-1-methyl-4-[4-(1H-pyrazolo[3,4-b]pyridin-5-yl)pyridin-2-yl]-1,3-dihydroimidazol-2-one], for which the IC50 at PI3Kbeta was 0.1 to 10 µM; against DNA-PK protein complex it was 0.1 to 100 nM; on PI3Kalpha, 0.1 to 10 µM; in test [1], 0.1 to 10 µM. Further, the Kd in test [2] lay in the range of 100 to 10000 nM.
`COc1ccc(Cn2c(-c3cc(-c4cnc(N)c(C(F)(F)F)c4)ccn3)cn(C)c2=O)cc1` [Example A110, 4-(6-Amino-5-trifluoromethyl-[3,4′]bipyridinyl-2′-yl)-3-(4-methoxybenzyl)-1-methyl-1,3-dihydroimidazol-2-one]: the IC50 on PI3Kbeta is 0.1 to 10 µM; against DNA-PK protein complex, 100 to 10000 nM; on PI3Kalpha it was 0.1 to 10 µM; in test [1], 0.1 to 10 µM. Besides, in test [2], the Kd was in the range of 100 to 10000 nM.
